Results taken from patent US9913854B2, “Methods and compositions for reducing the proliferation of gram positive bacteria” (priority 2012, dated 2018).
Converted amounts (≈) assume the structure as drawn. “Also recorded” adds a separate entry of the source. Like-named read-outs stand apart in the source and are kept apart here.

Experiments:
S. aureus tarO mutant = test: Dye sensitivity test on agar plates; type: cell-based, Staphylococcus aureus; conditions: for selective suppression of growth of tarO mutant but not parental strain on dye agar: Newman ΔtarO vs Newman; for growth on agar with Congo Red: tarO mutant, 0.08% w/v Congo Red
Method: (§1) Congo Red sensitivity tests were conducted as previously described (Hubscher et al., FEMS Microbiol. Lett. 295:251-260, 2009), with minor modification. Briefly, 10-fold dilutions, starting at 10^6 colony forming units (CFU) in 5 μL, were spotted on brain heart infusion (BHI) agar or Luria-Bertani (LB) agar, supplemented with 0.08% (w/v) Congo Red where appropriate. The Congo Red agar plates were incubated at 37° C. or 30° C. for 24 hours. As a precaution to prevent possible inactivation of Congo Red by light, the plates were incubated in the dark. Sensitivity to Congo Red was determined by comparing colony density between parental and mutant strains on control and Congo Red plates. Sudan Red 7B (0.08% w/v), Calcofluor White (0.01% w/v), Direct Red (0.08% w/v), Mordant Black (0.08% w/v), or Acid Red (0.08% w/v) in BHI agar were tested similarly.

S. aureus Newman [1] = test: Transmission electron microscopy after Congo Red; type: cell-based, Staphylococcus aureus; conditions: Newman parental; 6 hours in TSB with 10 mg/L Congo Red
Method: Newman or Newman ΔtarO were inoculated to approximately 10^9 CFU/mL in TSB containing 10 mg/L Congo Red, and cultured at 37° C. for 6 h. Cells were collected at 0 or 6 h, fixed in Karnovsky's fixative (2% paraformaldehyde and 2.5% glutaraldehyde in cacodylate buffer [pH 7.4]), and processed for TEM using standard procedures described in Suzuki et al. (Invest. Ophthalmol. Vis. Sci. 52:3187-3192, 2011). For TEM, 60- to […] sections were obtained, viewed, and photographed with a transmission electron microscope (model 410; Philips Electronics NV, Eindhoven, The Netherlands).

S. aureus RN4220ΔtarO = test: MIC, CLSI broth microplate assay; type: cell-based; conditions: Staphylococcus aureus
Method: (§2) In vitro susceptibility tests (minimum inhibitory concentration [MIC]) were conducted using the Clinical and Laboratory Standards Institute (CLSI) broth microplate assay guidelines (Clinical and Laboratory Standards Institute, Performance Standards for Antimicrobial Susceptibility Testing; 16th Informational Supplement, CLSI M100-S16, Wayne, Pa., 2006). Because of temperature sensitivity, to determine susceptibility of RN4220 ΔltaS, bacteria were cultured at 30° C. for 20 h.

S. aureus RN4220ΔtarA = test: MIC, CLSI broth microplate assay; type: cell-based; conditions: Staphylococcus aureus
Method: as §2

S. aureus RN6390 = test: MIC, CLSI broth microplate assay; type: cell-based; conditions: Staphylococcus aureus; strain RN6390
Method: as §2

S. aureus NewmanΔtarO = test: MIC, CLSI broth microplate assay; type: cell-based; conditions: Staphylococcus aureus
Method: as §2

S. aureus RN6390ΔtarO = test: MIC, CLSI broth microplate assay; type: cell-based; conditions: Staphylococcus aureus
Method: as §2

S. aureus Newman ΔtarO = test: Kinetics of Congo Red inhibition, growth in TSB; type: cell-based, Staphylococcus aureus; conditions: Newman tarO, 10 mg/L Congo Red
Method: FIG. 5 is a graph showing the growth of S. aureus strain Newman (closed circles) and Newman ΔtarO (open circles) in tryptic soy broth (TSB) before and following the addition of 10 mg/L Congo Red (black arrow).
To assess kinetics of Congo Red inhibition, growth of S. aureus strain Newman and its tarO mutant were assessed in TSB containing 10 mg/L Congo Red. Newman tarO began to die 3 hours after addition of Congo Red (FIG. 5). To probe the mechanism of killing, Congo Red-inhibited cells were examined by transmission electron microscopy (TEM) (FIGS. 6A-6D). […] Since Congo red contains two sulfonic-acid groups, the MICs for sulfanilamide which is developed from prontocil were determined in the Newman and tarO mutant strains.

[2] = test system: S. aureus tarO and tarA mutants lacking WTA; test: MIC, for mutants lacking WTA; type: cell-based, Staphylococcus aureus
Method: as §2
Minimum inhibitory concentrations (MICs) for Congo Red were determined by microdilution assay. Consistent with the results of agar plate tests, the parental strain RN4220, and isogenic tarK, and ltaS mutants, as well as an ltaS strain complemented on a multicopy plasmid, were all resistant to Congo Red at concentrations>1024 mg/L (Table 2).

S. aureus strain Newman = test: Checkerboard assay, Congo Red and tunicamycin; type: cell-based, Staphylococcus aureus
Method: A standard checkerboard assay, using Congo Red and tunicamycin, was performed as described in Lorian (Antibiotics in Laboratory Medicine, 4th Edition, Baltimore, Md., Williams & Wilkins Co., 1996). To assess the kinetics of inhibition, cultures of strain Newman were started in TSB containing either Congo Red or tunicamycin. Briefly, an overnight culture of S. aureus strain Newman was diluted to approximately 10^5 CFU/mL in 10 mL of TSB containing 10 mg/L Congo Red or 1 mg/L tunicamycin, and cultured at 37° C. statically. Following 2 h incubation, tunicamycin (1 mg/L final concentration) was added to the Congo Red culture, or Congo Red (10 mg/L final concentration) was added to the tunicamycin culture. Following 6 h of additional incubation bacteria were enumerated by plating serial ten-fold dilutions.

S. aureus tarA mutant = test: Congo Red sensitivity test on agar plates; type: cell-based, Staphylococcus aureus; conditions: 0.08% w/v Congo Red
Method: as §1

S. aureus tarK mutant = test: Congo Red sensitivity test on agar plates; type: cell-based, Staphylococcus aureus; conditions: 0.08% w/v Congo Red
Method: as §1

S. aureus RN4220ΔltaS = test: MIC, CLSI broth microplate assay; type: cell-based, Staphylococcus aureus
Method: as §2

[3] = test system: S. aureus RN4220ΔltaS-ltaS; test: MIC, CLSI broth microplate assay; type: cell-based, Staphylococcus aureus
Method: as §2

S. aureus RN4220 = test: MIC, CLSI broth microplate assay; type: cell-based, Staphylococcus aureus
Method: as §2

S. aureus Newman [4] = test: MIC, CLSI broth microplate assay; type: cell-based, Staphylococcus aureus
Method: as §2

S. aureus RN4220ΔtarK = test: MIC, CLSI broth microplate assay; type: cell-based, Staphylococcus aureus
Method: as §2

[5] = test system: C. elegans infected with S. aureus RN6390 ΔtarO; test: C. elegans infection model, S. aureus RN6390 ΔtarO; type: in vivo, Caenorhabditis elegans; conditions: Congo Red alone 3.1-25.0 mg/L
Method: (§3) C. elegans glp-4(bn2); sek-1(km4) was used for all experiments and infected essentially as described in Breger et al. (PLoS Pathog. 3:e18, 2007), with minor modifications. This mutant line was selected for liquid assay experiments because they are unable to produce progeny at 25° C. (Miyata et al., Genetics 178:903-918, 2008), and the deleted sek-1 gene encodes a conserved mitogen-activated protein (MAP) kinase involved in innate immunity (Kim et al., Science 297:623-626, 2002), expediting the rate of killing. Worms were cultured and maintained on nematode growth medium (NGM) agar containing lawns of E. coli HB101 (Breger et al., PLoS Pathog. 3:e18, 2007).
(§4) To assess the sensitivity of C. elegans to infection by S. aureus RN6390 or an isogenic ΔtarO strain, the bacteria were cultured in TSB at 37° C. Overnight cultures were plated onto 10 cm TSB agar plates for 18 hours at 37° C., and cooled at room temperature for 30 minutes. Washed young adult worms were infected on lawns of S. aureus strains for 3 hours at 25° C. After washing three times with M9, worms were transferred into the wells of a six well microtiter plates (40 worms per well). Each well contained 2 mL of assay medium (20% BHI: 80% M9 v/v) containing various concentrations of Congo Red, tunicamycin, or a combination of Congo Red and tunicamycin. […]

[6] = test system: C. elegans infected with S. aureus RN6390; test: C. elegans infection model, S. aureus RN6390; type: in vivo, Caenorhabditis elegans; conditions: Congo Red alone 3.1-25.0 mg/L
Method: as §3, §4

C. elegans = test: Toxicity against uninfected C. elegans; type: in vivo, Caenorhabditis elegans; conditions: single agent; tunicamycin 6.25-100.0 mg/L, Congo Red 3.1-50.0 mg/L; uninfected worms
Method: as §3, §4

S. aureus ltaS mutant = test: Congo Red sensitivity test on agar plates; type: cell-based, Staphylococcus aureus; conditions: LB agar, 0.08% w/v Congo Red, 30° C. and 37° C.
Method: as §1
To determine whether loss of lipoteichoic acid (LTA) could also generate the Congo Red susceptible phenotype, an ltaS mutant of S. aureus was tested (Oku et al., J. Bacteriol. 191:141-151, 2009). The ltaS mutant is sensitive to heat and low osmolarity (Grundling et al., Proc. Natl. Acad. Sci. U.S.A. 104:8478-8483, 2007; Oku et al., J. Bacteriol. 191:141-151, 2009). Therefore, Congo Red was added at 0.08% w/v to Luria broth (LB) agar (having a higher NaCl concentration than BHI), and the strain was tested for Congo Red sensitivity at 30° C. […]

[7] = BHI agar, dye 0.08% w/v, 37° C., 24 hours

CCN(CC)c1ccc2c(-c3ccc(S(=O)(=O)[O-])cc3S(=O)(=O)[O-])c3ccc(=[N+](CC)CC)cc-3oc2c1.[Na+] [Acid Red]
selective suppression of growth of tarO mutant but not parental strain on dye agar (S. aureus tarO mutant; [7]): conferred susceptibility

O=S(=O)(O)c1cc(Nc2nc(Nc3ccccc3)nc(N(CCO)CCO)n2)ccc1/C=C/c1ccc(Nc2nc(Nc3ccccc3)nc(N(CCO)CCO)n2)cc1S(=O)(=O)O [Calcofluor White]
selective suppression of growth of tarO mutant but not parental strain on dye agar (S. aureus tarO mutant; BHI agar, dye 0.01% w/v, 37° C., 24 hours): conferred susceptibility

Nc1c(/N=N/c2ccc(-c3ccc(/N=N/c4cc(S(=O)(=O)O)c5ccccc5c4N)cc3)cc2)cc(S(=O)(=O)O)c2ccccc12 [Congo Red]
cell morphology by TEM (S. aureus Newman [1]): not detectably affected
MIC (S. aureus RN4220ΔtarO): 2 µg/mL (≈ 3.06 µM)
MIC (S. aureus RN4220ΔtarA): 0.5 µg/mL (≈ 0.766 µM)
MIC (S. aureus RN6390): > 1020 µg/mL
MIC (S. aureus NewmanΔtarO): 1 µg/mL (≈ 1.53 µM)
MIC (S. aureus RN6390ΔtarO): 4 µg/mL (≈ 6.13 µM)
time after addition of Congo Red at which bacteria began to die (S. aureus Newman ΔtarO): 3 h
MIC ([2]; Staphylococcus aureus): 0.5 to 4 µg/mL (≈ 0.766 to 6.13 µM)
MIC fold lower than resistant strains ([2]; tarO and tarA mutants vs parental, tarK, ltaS strains): 250-2000 fold
Congo Red MIC in presence of tunicamycin (S. aureus strain Newman; tunicamycin as low as 5 mg/L): 1 µg/mL
synergy with tunicamycin (S. aureus strain Newman; two-dimensional checkerboard, 20 hours, 37° C.): strong synergy
growth on agar with Congo Red (S. aureus tarA mutant): neither tarA nor tarO strains grew
growth on agar with Congo Red (S. aureus tarK mutant): not affected
MIC (S. aureus RN4220ΔltaS; Staphylococcus aureus, 20 h): > 1020 µg/mL
MIC (S. aureus RN4220ΔltaS; strain RN4220ΔltaS, cultured at 30° C. for 20 h): >1024 µg/mL
MIC ([3]; Staphylococcus aureus): > 1020 µg/mL
MIC ([3]; strain RN4220ΔltaS-ltaS (ltaS complemented on multicopy plasmid)): >1024 µg/mL
MIC (S. aureus RN4220; Staphylococcus aureus, RN4220): > 1020 µg/mL
MIC (S. aureus RN4220; strain RN4220): >1024 µg/mL
MIC (S. aureus Newman [4]; Staphylococcus aureus, NEWMAN): > 1020 µg/mL
MIC (S. aureus Newman [4]; strain Newman, single agent): >1024 µg/mL
MIC (S. aureus RN4220ΔtarK; Staphylococcus aureus): > 1020 µg/mL
MIC (S. aureus RN4220ΔtarK; strain RN4220ΔtarK): >1024 µg/mL
rescue of infected nematodes (survival) [5]: rescue
growth on agar with Congo Red (S. aureus tarO mutant; BHI agar, 37° C., 24 hours): highly susceptible; also recorded: neither tarA nor tarO strains grew
growth on agar with Congo Red (S. aureus tarO mutant; LB agar, 30° C. and 37° C.): inhibited
rescue of infected nematodes (survival) [6]: little effect; also recorded: inability
toxicity for C. elegans (C. elegans): little toxicity
growth on agar with Congo Red (S. aureus ltaS mutant): no effect

CCNc1ccc2ccccc2c1N=Nc1ccc(N=Nc2ccccc2)cc1 [Sudan Red 7B]
selective suppression of growth of tarO mutant but not parental strain on dye agar (S. aureus tarO mutant; [7]): conferred susceptibility

Nc1ccc(S(N)(=O)=O)cc1 [sulfanilamide]
MIC (S. aureus NewmanΔtarO): > 128 µg/mL
MIC (S. aureus Newman [4]; Staphylococcus aureus, strain Newman, single agent, read-out: MIC): > 128 µg/mL

Direct Red
selective suppression of growth of tarO mutant but not parental strain on dye agar (S. aureus tarO mutant; [7]): conferred susceptibility

Mordant black
selective suppression of growth of tarO mutant but not parental strain on dye agar (S. aureus tarO mutant; [7]): conferred susceptibility

tunicamycin
toxicity for C. elegans (C. elegans): dose dependent toxicity
